Data on 23 compounds can be found in PubChem BioAssay AID330 (DTP/NCI, 2004).

The assay relates to P388 leukemia ip, CD2F1 mice, survival T/C. Kind of assay: NCI In Vivo Anticancer Drug Screen. Data for tumor model P388 Leukemia (intraperitoneal) in CD2F1 (CDF1) mice. To be noted: endpoint: median survival time, higher = longer survival. Put shortly: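 Mice carrying the transplanted tumor received test compound or vehicle. Survival was recorded in each group, and the value is the treated-group measurement divided by that of the vehicle-treated control group.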

Setting [1] is: dose: 12.5 mg/kg/injection, schedule: Q01DX009 (ip), vehicle: saline.
Where [2] appears, read: dose: 100.0 mg/kg/injection, schedule: Q01DX009 (ip), vehicle: suspension in saline.
Setting [3] is: dose: 400.0 mg/kg/injection, schedule: Q01DX009 (ip), vehicle: saline with Tween-80.
The mark [4] stands for this setting: dose: 30.0 mg/kg/injection, schedule: Q01DX005 (ip), vehicle: Klucel (hydroxypropylcellulose) (HPC).
[5] abbreviates: dose: 60.0 mg/kg/injection, schedule: Q01DX005 (ip), vehicle: Klucel (hydroxypropylcellulose) (HPC).
Where [6] appears, read: dose: 120.0 mg/kg/injection, schedule: Q01DX005 (ip), vehicle: Klucel (hydroxypropylcellulose) (HPC).
Where [7] appears, read: dose: 240.0 mg/kg/injection, schedule: Q01DX005 (ip), vehicle: Klucel (hydroxypropylcellulose) (HPC).
Setting [8] is: dose: 6.25 mg/kg/injection, schedule: Q01DX009 (ip), vehicle: saline with Tween-80.
Setting [9] is: dose: 12.5 mg/kg/injection, schedule: Q01DX009 (ip), vehicle: saline with Tween-80.
The mark [10] stands for this setting: dose: 50.0 mg/kg/injection, schedule: Q01DX009 (ip), vehicle: saline with Tween-80.
Where [11] appears, read: dose: 100.0 mg/kg/injection, schedule: Q04DX002 (ip), vehicle: saline with Tween-80.
[12] abbreviates: dose: 200.0 mg/kg/injection, schedule: Q04DX002 (ip), vehicle: saline with Tween-80.
Where [13] appears, read: dose: 60.0 mg/kg/injection, schedule: Q01DX005 (ip), vehicle: saline with Tween-80.
Setting [14] is: dose: 120.0 mg/kg/injection, schedule: Q01DX005 (ip), vehicle: saline with Tween-80.
The mark [15] stands for this setting: dose: 240.0 mg/kg/injection, schedule: Q01DX005 (ip), vehicle: saline with Tween-80.
The mark [16] stands for this setting: dose: 25.0 mg/kg/injection, schedule: Q01DX009 (ip), vehicle: saline.
Setting [17] is: dose: 50.0 mg/kg/injection, schedule: Q01DX009 (ip), vehicle: saline.
The mark [18] stands for this setting: dose: 100.0 mg/kg/injection, schedule: Q01DX009 (ip), vehicle: saline with Tween-80.
[19] abbreviates: dose: 200.0 mg/kg/injection, schedule: Q01DX009 (ip), vehicle: saline with Tween-80.
Where [20] appears, read: dose: 6.25 mg/kg/injection, schedule: Q01DX009 (ip), vehicle: saline.
[21] abbreviates: dose: 50.0 mg/kg/injection, schedule: Q01DX005 (ip), vehicle: saline.
The mark [22] stands for this setting: dose: 100.0 mg/kg/injection, schedule: Q01DX005 (ip), vehicle: saline.
The mark [23] stands for this setting: dose: 200.0 mg/kg/injection, schedule: Q01DX005 (ip), vehicle: saline.

“And” between values parts separate entries of the source, which are not always exact repeats. Identical values can stand only once. Inconclusive results and toxic doses are left out.

For `C1OC1CO[C@@H]1CO[C@H]2[C@@H]1OC[C@H]2OCC1CO1` (some centres undefined), the T/C is 120 % of control under setting [1]; 194 % of control (dose: 100.0 mg/kg/injection, schedule: Q01DX009 (ip), vehicle: saline); 163 % of control under setting [2]; 192 % of control (dose: 200.0 mg/kg/injection, schedule: Q01DX009 (ip), vehicle: saline); 213 % of control under setting [3]; 94 % of control (dose: 400.0 mg/kg/injection, schedule: Q01DX009 (ip), vehicle: saline). Moreover, the T/C (dose: 400.0 mg/kg/injection, schedule: Q01DX009 (ip), vehicle: suspension in saline) was 100 % of control; the T/C (dose: 400.0 mg/kg/injection, schedule: Q04DX003 (ip), vehicle: saline with Tween-80) was 186 % of control; the T/C (dose: 600.0 mg/kg/injection, schedule: Q04DX003 (ip), vehicle: saline with Tween-80) is 200 % of control.

On to `COc1ccccc1C1OC2=Nc3cc(C)c(C)cc3NC2C1=O` (centres undefined), for which the T/C by setting is: under setting [4], 96 % of control; under setting [5], 93 % of control; under setting [6], 90 % of control; under setting [7], 95 % of control.

With `O=C(OC(C(=O)O)c1ccccc1)c1ccc([N+](=O)[O-])cc1` (centres undefined), the T/C (dose: 75.0 mg/kg/injection, schedule: Q01DX001 (ip), vehicle: Klucel (hydroxypropylcellulose) (HPC)) is 89 % of control; the T/C (dose: 150.0 mg/kg/injection, schedule: Q01DX001 (ip), vehicle: Klucel (hydroxypropylcellulose) (HPC)) was 103 % of control; the T/C (dose: 300.0 mg/kg/injection, schedule: Q01DX001 (ip), vehicle: Klucel (hydroxypropylcellulose) (HPC)) is 95 % of control.

`c1ccc(-c2[s+]ccc3ccccc23)cc1`: the T/C was 115 % of control (dose: 50.0 mg/kg/injection, schedule: Q01DX009 (ip), vehicle: Klucel (hydroxypropylcellulose) (HPC)); 118 % of control (dose: 100.0 mg/kg/injection, schedule: Q01DX009 (ip), vehicle: Klucel (hydroxypropylcellulose) (HPC)); 117 % of control (dose: 200.0 mg/kg/injection, schedule: Q01DX009 (ip), vehicle: Klucel (hydroxypropylcellulose) (HPC)).

With `COc1cc(/C=C/CO)cc(OC)c1OC1OC(CO)C(O)C(O)C1O` (centres undefined), the T/C reads like this: (dose: 10.0 mg/kg/injection, schedule: Q01DX009 (ip), vehicle: saline + alcohol) 100 % of control; (dose: 20.0 mg/kg/injection, schedule: Q01DX009 (ip), vehicle: saline + alcohol) 110 % of control; (dose: 40.0 mg/kg/injection, schedule: Q01DX009 (ip), vehicle: saline + alcohol) 97 % of control; (dose: 80.0 mg/kg/injection, schedule: Q01DX009 (ip), vehicle: saline + alcohol) 100 % of control.

Take `Clc1ccc(NCc2ccc(CNc3ccc(Cl)cc3)cc2)cc1`: the T/C was 98 % of control under setting [8]; 91 % of control under setting [9]; 91 % of control (dose: 25.0 mg/kg/injection, schedule: Q01DX009 (ip), vehicle: saline with Tween-80); 97 % of control under setting [10].

As for `CCCCNC(=S)N/N=C/c1nc2ccccc2c(=O)n1-c1ccc(Br)cc1`, the T/C is, setting by setting: under setting [11], 98 % of control; under setting [12], 89 % of control.

Take `N=C1N=Nc2nc(C(C(=O)c3cccs3)c3nc4n(c3O)C(=N)N=N4)c(O)n21` (centres undefined): the T/C under setting [13] is 97 % of control, the T/C under setting [14] was 100 % of control and the T/C under setting [15] is 106 % of control.

Consider `COc1ccc(O)c(CN2CCN(Cc3cc(OC)ccc3O)CC2)c1`, for which the T/C (dose: 15.0 mg/kg/injection, schedule: Q01DX005 (ip), vehicle: saline with Tween-80) is 91 % of control and the T/C (dose: 30.0 mg/kg/injection, schedule: Q01DX005 (ip), vehicle: saline with Tween-80) was 86 % of control.

In the case of `c1cc2ccc1CSCCCSCc1ccc(cc1)CSCCCSC2`, the T/C is, setting by setting: (dose: 25.0 mg/kg/injection, schedule: Q01DX009 (ip), vehicle: suspension in saline) 100 % of control; (dose: 50.0 mg/kg/injection, schedule: Q01DX009 (ip), vehicle: suspension in saline) 92 % of control; under setting [2], 98 % of control.

Regarding `CCCN(CCC)c1nc2ccc(NC(=O)OCC)cc2s1`, the T/C was 95 % of control under setting [1], 100 % of control under setting [16], 101 % of control under setting [10] and 100 % of control under setting [17].

Turning to `COC1/C=C/OC2(C)Oc3c(C)c(O)c4c(O)c(c(/C=N/N5C(C)CN(Cc6ccc(C)cc6)CC5C)c(O)c4c3C2=O)NC(=O)C(C)=C/C=C/C(C)C(O)C(C)C(O)C(C)C(OC(C)=O)C1C` (centres undefined), the T/C under setting [10] is 97 % of control, the T/C under setting [18] was 96 % of control and the T/C under setting [19] is 103 % of control.

In the case of `N#CC1=C(C#N)Sc2nc3cc(Cl)ccc3nc2S1`, the T/C under setting [20] is 109 % of control; the T/C under setting [1] was 115 % of control and 95 % of control; the T/C under setting [16] is 108 % of control; the T/C under setting [17] was 115 % of control.

In the case of `CC(C)c1c(CN(C)C(C)Cc2ccccc2)n(C)n(-c2ccccc2)c1=O` (centres undefined), the T/C is 108 % of control under setting [13], 105 % of control under setting [14] and 98 % of control under setting [15].

Consider `Cc1ccc(S(=O)(=O)NN=C2C3CCC2CC3)cc1`, for which the T/C by setting is: under setting [10], 111 % of control; under setting [18], 108 % of control; under setting [19], 118 % of control.

`COC(=O)C(Cl)c1ccccc1` (centres undefined): the T/C by setting is: under setting [18], 104 % of control; under setting [19], 113 % of control; under setting [3], 100 % of control.

In the case of `O=C(O)c1c(Cl)n(Cc2ccc(Cl)cc2Cl)c2ccccc12`, the T/C is 100 % of control under setting [5]; 103 % of control and 93 % of control under setting [6]; 104 % of control and 93 % of control under setting [7].

Regarding `C[N+](C)(C)Cc1ccccc1`, the T/C (dose: 3.13 mg/kg/injection, schedule: Q01DX009 (ip), vehicle: saline with Tween-80) is 100 % of control; the T/C (dose: 3.13 mg/kg/injection, schedule: Q01DX009 (ip), vehicle: saline) was 99 % of control; the T/C (dose: 6.25 mg/kg/injection, schedule: Q01DX009 (ip), vehicle: Klucel (hydroxypropylcellulose) (HPC)) was 95 % of control; the T/C under setting [8] was 100 % of control; the T/C under setting [20] was 94 % of control; the T/C (dose: 12.5 mg/kg/injection, schedule: Q01DX009 (ip), vehicle: Klucel (hydroxypropylcellulose) (HPC)) is 93 % of control. The T/C is 100 % of control under setting [9]; 96 % of control under setting [1]; 99 % of control (dose: 25.0 mg/kg/injection, schedule: Q01DX009 (ip), vehicle: Klucel (hydroxypropylcellulose) (HPC)).

Turning to `CCCCS(=N)(=O)CCC(N)P(=O)(O)O` (centres undefined), the T/C runs as follows: under setting [21], 93 % of control; under setting [22], 100 % of control; under setting [23], 95 % of control.

`CC(=O)NC(CC(C)C(C)=O)C(=O)O` (centres undefined): the T/C reads like this: under setting [21], 92 % of control; under setting [22], 95 % of control; under setting [23], 92 % of control.

Consider `N#C/C(=N\Nc1ccc(F)cc1)C(=O)C1CC1`, for which the T/C is 100 % of control (dose: 15.0 mg/kg/injection, schedule: Q01DX005 (ip), vehicle: Klucel (hydroxypropylcellulose) (HPC)); 106 % of control under setting [4]; 98 % of control under setting [5].

As to `CSc1ccccc1C(=O)O`, the T/C is 104 % of control under setting [11]; 101 % of control under setting [12]; 102 % of control (dose: 400.0 mg/kg/injection, schedule: Q04DX002 (ip), vehicle: saline with Tween-80).

For `CC(C)NC(C#N)C(C)C` (centres undefined), the T/C runs as follows: (dose: 3.12 mg/kg/injection, schedule: Q01DX005 (ip), vehicle: Klucel (hydroxypropylcellulose) (HPC)) 99 % of control; (dose: 6.25 mg/kg/injection, schedule: Q01DX005 (ip), vehicle: Klucel (hydroxypropylcellulose) (HPC)) 108 % of control; (dose: 12.5 mg/kg/injection, schedule: Q01DX005 (ip), vehicle: Klucel (hydroxypropylcellulose) (HPC)) 102 % of control.
